Reference: article PMC7736581, “Activation of the IRE1 RNase through remodeling of the kinase front pocket by ATP-competitive ligands” (Nature Communications, 2020)

How the values were obtained:
[1] = target: T1, Inositol-Requiring Enzyme 1 (IRE1) (Homo sapiens, UniProt O75460); experiment: co-crystal structure ([…] Å); also TR-FRET kinase binding, HX-MS, RNase activation; set-up: gene ERN1; IRE1 KR (G547-L977), unphosphorylated (IRE1-0P)
[2] = target: MARK1 (Homo sapiens, UniProt Q9P0L2); experiment: biochemical; set-up: Invitrogen kinase panel: Z'Lyte activity (ATP at Km) or LanthaScreen competitive ATP-site binding, percent inhibition
Chain of MARK1 (Q9P0L2 whole entry): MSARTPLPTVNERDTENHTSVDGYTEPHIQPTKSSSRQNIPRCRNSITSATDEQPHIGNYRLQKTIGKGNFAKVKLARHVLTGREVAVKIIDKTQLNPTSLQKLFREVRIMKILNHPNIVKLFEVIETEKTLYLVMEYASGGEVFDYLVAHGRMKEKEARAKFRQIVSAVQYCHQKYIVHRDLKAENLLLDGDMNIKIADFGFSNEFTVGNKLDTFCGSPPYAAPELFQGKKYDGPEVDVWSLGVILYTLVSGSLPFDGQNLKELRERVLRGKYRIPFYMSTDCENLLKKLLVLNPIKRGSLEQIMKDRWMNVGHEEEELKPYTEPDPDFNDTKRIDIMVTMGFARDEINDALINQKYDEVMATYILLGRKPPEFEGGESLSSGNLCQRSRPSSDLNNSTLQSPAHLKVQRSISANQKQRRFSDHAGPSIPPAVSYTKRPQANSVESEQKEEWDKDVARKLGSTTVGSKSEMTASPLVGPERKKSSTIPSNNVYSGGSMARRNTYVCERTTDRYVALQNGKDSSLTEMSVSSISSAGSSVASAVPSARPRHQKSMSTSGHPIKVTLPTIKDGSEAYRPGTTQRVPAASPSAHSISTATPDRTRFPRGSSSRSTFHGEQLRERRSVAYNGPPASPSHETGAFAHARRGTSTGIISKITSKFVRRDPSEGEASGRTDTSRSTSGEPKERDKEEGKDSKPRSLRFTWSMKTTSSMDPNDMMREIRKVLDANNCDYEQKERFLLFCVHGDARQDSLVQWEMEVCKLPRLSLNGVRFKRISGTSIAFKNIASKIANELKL

[3] = target: T2, ZIPK (Homo sapiens, UniProt O43293); experiment: biochemical; set-up: Invitrogen kinase panel: Z'Lyte activity (ATP at Km) or LanthaScreen competitive ATP-site binding, percent inhibition
T2 construct: gene DAPK3
T2 sequence (O43293 whole entry): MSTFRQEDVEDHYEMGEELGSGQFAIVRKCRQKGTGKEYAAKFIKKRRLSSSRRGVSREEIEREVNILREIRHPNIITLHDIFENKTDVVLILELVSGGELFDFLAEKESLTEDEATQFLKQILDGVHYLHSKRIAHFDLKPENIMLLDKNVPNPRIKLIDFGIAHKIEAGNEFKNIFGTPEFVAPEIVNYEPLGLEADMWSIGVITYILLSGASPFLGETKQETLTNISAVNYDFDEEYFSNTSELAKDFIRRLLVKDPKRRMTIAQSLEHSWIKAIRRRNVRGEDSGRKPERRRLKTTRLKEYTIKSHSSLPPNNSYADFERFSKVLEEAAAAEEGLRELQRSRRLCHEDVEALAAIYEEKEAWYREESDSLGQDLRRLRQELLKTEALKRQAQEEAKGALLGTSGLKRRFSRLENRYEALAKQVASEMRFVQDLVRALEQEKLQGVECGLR

[4] = target: BMPR1A (Homo sapiens, UniProt P36894); experiment: biochemical; set-up: Invitrogen kinase panel: Z'Lyte activity (ATP at Km) or LanthaScreen competitive ATP-site binding, percent inhibition
Chain of BMPR1A (P36894 whole entry): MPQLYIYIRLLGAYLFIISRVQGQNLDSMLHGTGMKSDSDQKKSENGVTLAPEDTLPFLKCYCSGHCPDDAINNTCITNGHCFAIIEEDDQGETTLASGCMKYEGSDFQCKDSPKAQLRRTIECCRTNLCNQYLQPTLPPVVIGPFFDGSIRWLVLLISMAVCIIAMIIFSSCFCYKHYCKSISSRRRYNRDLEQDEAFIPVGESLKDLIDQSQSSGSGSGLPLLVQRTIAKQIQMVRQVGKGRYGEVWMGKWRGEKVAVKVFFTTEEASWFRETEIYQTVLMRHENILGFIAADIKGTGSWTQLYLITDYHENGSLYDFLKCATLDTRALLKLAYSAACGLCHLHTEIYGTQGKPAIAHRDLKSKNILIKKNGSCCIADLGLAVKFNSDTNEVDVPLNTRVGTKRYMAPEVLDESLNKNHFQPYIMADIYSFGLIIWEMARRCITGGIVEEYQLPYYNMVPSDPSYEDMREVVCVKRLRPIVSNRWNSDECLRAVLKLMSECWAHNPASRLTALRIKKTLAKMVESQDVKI

[5] = target: EGFR (Homo sapiens, UniProt P00533); experiment: biochemical; set-up: Invitrogen kinase panel: Z'Lyte activity (ATP at Km) or LanthaScreen competitive ATP-site binding, percent inhibition
Chain of EGFR (P00533 whole entry): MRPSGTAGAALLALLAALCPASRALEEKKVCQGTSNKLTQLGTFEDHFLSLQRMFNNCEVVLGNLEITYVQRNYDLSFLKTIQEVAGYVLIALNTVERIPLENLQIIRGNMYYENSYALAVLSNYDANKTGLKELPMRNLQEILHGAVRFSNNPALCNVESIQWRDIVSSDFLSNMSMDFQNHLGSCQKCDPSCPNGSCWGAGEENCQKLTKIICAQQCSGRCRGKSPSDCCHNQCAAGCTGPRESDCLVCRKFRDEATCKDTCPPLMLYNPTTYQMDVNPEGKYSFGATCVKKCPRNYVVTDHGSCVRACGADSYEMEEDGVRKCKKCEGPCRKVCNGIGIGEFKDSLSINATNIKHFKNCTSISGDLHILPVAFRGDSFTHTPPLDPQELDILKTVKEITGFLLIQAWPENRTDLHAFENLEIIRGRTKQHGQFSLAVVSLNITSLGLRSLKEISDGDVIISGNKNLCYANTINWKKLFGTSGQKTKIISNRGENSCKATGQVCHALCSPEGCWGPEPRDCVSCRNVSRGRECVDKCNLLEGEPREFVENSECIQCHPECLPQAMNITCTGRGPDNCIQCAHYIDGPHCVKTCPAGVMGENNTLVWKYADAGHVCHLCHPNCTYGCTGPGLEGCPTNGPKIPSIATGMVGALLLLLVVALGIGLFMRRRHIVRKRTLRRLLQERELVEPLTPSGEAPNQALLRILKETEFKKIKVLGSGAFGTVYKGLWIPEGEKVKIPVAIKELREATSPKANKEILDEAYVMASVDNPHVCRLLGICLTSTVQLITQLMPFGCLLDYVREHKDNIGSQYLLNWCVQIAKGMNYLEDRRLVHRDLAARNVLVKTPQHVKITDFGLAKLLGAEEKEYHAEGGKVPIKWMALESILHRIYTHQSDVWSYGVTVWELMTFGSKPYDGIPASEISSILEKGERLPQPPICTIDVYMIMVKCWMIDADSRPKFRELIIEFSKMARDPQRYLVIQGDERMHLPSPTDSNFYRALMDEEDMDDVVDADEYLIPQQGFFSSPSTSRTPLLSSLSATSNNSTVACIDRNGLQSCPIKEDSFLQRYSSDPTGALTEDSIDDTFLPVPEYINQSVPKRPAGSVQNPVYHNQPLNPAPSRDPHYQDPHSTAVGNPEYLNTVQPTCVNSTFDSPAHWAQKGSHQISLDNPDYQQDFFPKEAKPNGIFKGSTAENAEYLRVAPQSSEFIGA

[6] = target: ErbB2 (Homo sapiens, UniProt P04626); experiment: biochemical; set-up: Invitrogen kinase panel: Z'Lyte activity (ATP at Km) or LanthaScreen competitive ATP-site binding, percent inhibition
[7] = target: T3, CK2_alpha1 (Homo sapiens, UniProt P68400); experiment: biochemical; set-up: Invitrogen kinase panel: Z'Lyte activity (ATP at Km) or LanthaScreen competitive ATP-site binding, percent inhibition
T3 construct: gene CSNK2A1
T3 sequence (P68400 whole entry): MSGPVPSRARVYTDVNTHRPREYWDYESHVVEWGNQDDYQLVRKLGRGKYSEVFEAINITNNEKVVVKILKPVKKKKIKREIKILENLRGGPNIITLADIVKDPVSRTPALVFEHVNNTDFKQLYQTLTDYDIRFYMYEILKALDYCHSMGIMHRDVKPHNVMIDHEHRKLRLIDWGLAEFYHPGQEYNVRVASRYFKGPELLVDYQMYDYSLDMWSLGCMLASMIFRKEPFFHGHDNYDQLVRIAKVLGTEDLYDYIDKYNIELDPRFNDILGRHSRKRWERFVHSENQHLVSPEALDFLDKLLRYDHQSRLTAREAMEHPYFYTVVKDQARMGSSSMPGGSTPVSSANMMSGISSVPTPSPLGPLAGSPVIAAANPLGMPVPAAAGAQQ

[8] = target: PLK1 (Homo sapiens, UniProt P53350); experiment: biochemical; set-up: Invitrogen kinase panel: Z'Lyte activity (ATP at Km) or LanthaScreen competitive ATP-site binding, percent inhibition
Chain of PLK1 (P53350 whole entry): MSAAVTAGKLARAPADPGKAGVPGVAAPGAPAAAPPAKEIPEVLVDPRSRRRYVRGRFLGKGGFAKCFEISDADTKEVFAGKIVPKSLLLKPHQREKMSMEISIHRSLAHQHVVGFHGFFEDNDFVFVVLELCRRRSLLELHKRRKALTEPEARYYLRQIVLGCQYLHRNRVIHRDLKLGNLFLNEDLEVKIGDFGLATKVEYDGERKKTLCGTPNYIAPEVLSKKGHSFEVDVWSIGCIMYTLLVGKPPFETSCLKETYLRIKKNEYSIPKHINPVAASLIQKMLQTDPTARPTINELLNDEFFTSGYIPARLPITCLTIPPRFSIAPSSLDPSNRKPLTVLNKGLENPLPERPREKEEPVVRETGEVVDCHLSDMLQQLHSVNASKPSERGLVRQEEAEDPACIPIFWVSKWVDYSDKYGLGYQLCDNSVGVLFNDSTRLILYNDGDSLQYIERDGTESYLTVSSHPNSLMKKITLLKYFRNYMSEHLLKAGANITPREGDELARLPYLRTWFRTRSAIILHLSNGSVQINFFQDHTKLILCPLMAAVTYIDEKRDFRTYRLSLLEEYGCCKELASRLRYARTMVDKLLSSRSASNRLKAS

[9] = target: NLK (Homo sapiens, UniProt Q9UBE8); experiment: biochemical; set-up: Invitrogen kinase panel: Z'Lyte activity (ATP at Km) or LanthaScreen competitive ATP-site binding, percent inhibition
Chain of NLK (Q9UBE8 whole entry): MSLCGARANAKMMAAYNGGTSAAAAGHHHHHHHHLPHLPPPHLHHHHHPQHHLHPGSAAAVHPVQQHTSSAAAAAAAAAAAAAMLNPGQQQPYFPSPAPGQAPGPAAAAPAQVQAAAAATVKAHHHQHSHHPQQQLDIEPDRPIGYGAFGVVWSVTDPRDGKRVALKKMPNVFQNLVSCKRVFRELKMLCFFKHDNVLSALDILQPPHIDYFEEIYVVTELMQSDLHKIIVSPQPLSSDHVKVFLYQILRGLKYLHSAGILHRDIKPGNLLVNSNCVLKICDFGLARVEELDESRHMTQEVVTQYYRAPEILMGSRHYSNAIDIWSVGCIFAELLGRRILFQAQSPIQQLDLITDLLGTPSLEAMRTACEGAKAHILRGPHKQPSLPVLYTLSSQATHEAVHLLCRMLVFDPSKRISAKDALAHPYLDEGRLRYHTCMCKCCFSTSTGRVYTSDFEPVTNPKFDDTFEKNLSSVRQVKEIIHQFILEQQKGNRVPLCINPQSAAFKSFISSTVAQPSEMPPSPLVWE

[10] = target: T1, Inositol-Requiring Enzyme 1 (IRE1); experiment: co-crystal structure ([…] Å); also TR-FRET kinase binding, HX-MS, SV-AUC, RNase activation; set-up: gene ERN1; unphosphorylated IRE1 cytoplasmic kinase-RNase (IRE1-0P)
[11] = target: T4, PDGFR_beta (Homo sapiens, UniProt P09619); experiment: biochemical; set-up: Invitrogen kinase panel: Z'Lyte activity (ATP at Km) or LanthaScreen competitive ATP-site binding, percent inhibition
T4 construct: gene PDGFRB

[12] = target: Fyn (Homo sapiens, UniProt P06241); experiment: biochemical; set-up: Invitrogen kinase panel: Z'Lyte activity (ATP at Km) or LanthaScreen competitive ATP-site binding, percent inhibition
[13] = target: T5, PKC_iota (Homo sapiens, UniProt P41743); experiment: biochemical; set-up: Invitrogen kinase panel: Z'Lyte activity (ATP at Km) or LanthaScreen competitive ATP-site binding, percent inhibition
T5 construct: gene PRKCI

[14] = target: T6, FAK2 (Homo sapiens, UniProt Q14289); experiment: biochemical; set-up: Invitrogen kinase panel: Z'Lyte activity (ATP at Km) or LanthaScreen competitive ATP-site binding, percent inhibition
T6 construct: gene PTK2B

[15] = target: T7, Cot (Homo sapiens, UniProt P41279); experiment: biochemical; set-up: Invitrogen kinase panel: Z'Lyte activity (ATP at Km) or LanthaScreen competitive ATP-site binding, percent inhibition
T7 construct: gene MAP3K8

[16] = target: T8, GCK (Homo sapiens, UniProt Q12851); experiment: biochemical; set-up: Invitrogen kinase panel: Z'Lyte activity (ATP at Km) or LanthaScreen competitive ATP-site binding, percent inhibition
T8 construct: gene MAP4K2

T1 sequence (O75460 547-977): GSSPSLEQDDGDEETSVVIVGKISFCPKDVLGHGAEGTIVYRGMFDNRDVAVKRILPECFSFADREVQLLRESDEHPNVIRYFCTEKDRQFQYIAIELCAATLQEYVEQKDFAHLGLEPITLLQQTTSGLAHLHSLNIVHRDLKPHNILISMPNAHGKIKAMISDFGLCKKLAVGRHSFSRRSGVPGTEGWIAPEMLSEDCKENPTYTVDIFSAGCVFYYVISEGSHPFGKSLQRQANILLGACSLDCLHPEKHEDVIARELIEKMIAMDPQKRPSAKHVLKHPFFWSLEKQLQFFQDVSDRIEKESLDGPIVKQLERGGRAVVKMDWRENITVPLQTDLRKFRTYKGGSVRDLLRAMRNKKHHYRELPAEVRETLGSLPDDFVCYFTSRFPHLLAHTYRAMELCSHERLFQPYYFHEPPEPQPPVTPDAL

Row | IC50 [10] | inhibition at 1 µM [11] | inhibition at 1 µM [12] | inhibition at 1 µM [13] | inhibition at 1 µM [14] | inhibition at 1 µM [15] | inhibition at 1 µM [16] | SMILES | IC50 [1] | inhibition at 1 µM [2] | inhibition at 1 µM [3] | inhibition at 1 µM [4] | inhibition at 1 µM [5] | inhibition at 1 µM [6] | inhibition at 1 µM [7] | inhibition at 1 µM [8] | inhibition at 1 µM [9]
1 |  |  |  |  |  |  |  | CCOC(=O)Nc1cccc2c(Oc3ncccc3-c3ccnc(N[C@H]4CCCNC4)n3)c(C)ccc12 [G-1749] | low-nanomolar | 10% | 1% | 0% | -6% | 7.5% | 0.5% | 5% | 13%
2 |  |  |  |  |  |  |  | CC#CC(=O)Nc1cccc2c(Oc3ncccc3-c3ccnc(N[C@H]4CCCNC4)n3)c(C)ccc12 [G-7658] |  | 9% | 0% | 2% | -9% | 3.5% | 0% | 6% | 19%
3 | low-nanomolar | 80.4% | 76.2% | 46.6% | 79.6% | 94% | 95.7% | O=c1cc(-c2n[nH]c3ncc(-c4c(F)cccc4F)cc23)nc(N2CCC(O)CC2)[nH]1 [G-9807] |  |  |  |  |  |  |  |  | 
